This assay deals with T1, Human plasma kallikrein (Homo sapiens, UniProt P03952).
T1 construct: yields a heavy chain (371 amino acids) and a light chain (248 amino acids); purchased Enzyme Research Laboratories
In words: Plasma Kallikrein Assay. In kind it is biochemical. Particulars: purified Human plasma kallikrein 0.5 nM, substrate Acetyl-K-P-R-AFC, pH 7.4. Here is the method: The effectiveness of a compound of the present invention as an inhibitor of plasma kallikrein can be determined using a relevant purified serine protease, and an appropriate synthetic substrate. The rate of hydrolysis of the chromogenic or fluorogenic substrate by the relevant serine protease was measured both in the absence and presence of compounds of the present invention. Assays were conducted at rt or at 37° C. […] A decrease in the rate of fluorescence change in the presence of inhibitor is indicative of enzyme inhibition. Such methods are known to one skilled in the art. The results of this assay are expressed as the half-maximal inhibitory concentrations (IC50), or the inhibitory constant, Ki.
Plasma kallikrein determinations were made in 50 mM HEPES buffer at pH 7.4 containing 150 mM NaCl, 5 mM CaCl2), and 0.1% PEG 8000 (polyethylene glycol; Fisher Scientific). […]
Times required to achieve equilibration between enzyme and inhibitor were determined in control experiments. The reactions were performed under linear progress curve conditions and fluorescence increase measured at 405 Ex/510 Em nm. […] IC50 was determined by inflection point from a four parameter logistic curve fit. Ki was calculated using the Cheng Prusoff equation, Ki=IC50/(1+([S]/Km)).

Broadly, the IC50 is the concentration that gives 50% inhibition. Low values mean greater potency, high ones weaker potency.

T1 sequence (P03952 391-638 limits assumed): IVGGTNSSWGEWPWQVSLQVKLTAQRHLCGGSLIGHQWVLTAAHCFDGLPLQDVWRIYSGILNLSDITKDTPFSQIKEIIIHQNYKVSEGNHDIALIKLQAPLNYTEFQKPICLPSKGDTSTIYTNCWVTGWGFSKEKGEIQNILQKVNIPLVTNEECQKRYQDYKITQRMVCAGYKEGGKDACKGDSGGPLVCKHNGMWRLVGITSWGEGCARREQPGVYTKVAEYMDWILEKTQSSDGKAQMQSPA
T1 sequence (P03952 20-390 partner limits assumed): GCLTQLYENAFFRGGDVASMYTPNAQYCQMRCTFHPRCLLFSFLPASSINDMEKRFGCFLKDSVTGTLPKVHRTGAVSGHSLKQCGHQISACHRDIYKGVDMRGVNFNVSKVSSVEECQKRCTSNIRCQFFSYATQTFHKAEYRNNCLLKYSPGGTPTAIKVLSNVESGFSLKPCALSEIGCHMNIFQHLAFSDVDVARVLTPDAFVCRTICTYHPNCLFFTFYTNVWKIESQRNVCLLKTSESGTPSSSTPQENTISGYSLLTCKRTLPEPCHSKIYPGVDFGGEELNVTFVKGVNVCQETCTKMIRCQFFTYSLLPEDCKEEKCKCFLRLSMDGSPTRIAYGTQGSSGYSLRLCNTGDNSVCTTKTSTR

`NC(=O)[C@@H]1CCCN1c1ccc(Cn2cc(NC(=O)c3cncc(-c4c(C(F)F)ccc(Cl)c4F)n3)cn2)cn1` [Example 116, (S)-N-(1-((6-(2-Carbamoylpyrrolidin-1-yl)pyridin-3-yl)methyl)-1H-pyrazol-4-yl)-6-(3-chloro-6-(difluoromethyl)-2-fluorophenyl)pyrazine-2-carboxamide] registered a 50% inhibitory concentration (IC50) of 0.0036 µM.

`O=C(Nc1cnn(Cc2ccc(N3CCC4OCCC43)nc2)c1)c1cncc(-c2c(C(F)F)ccc(Cl)c2F)n1` (stereo not shown) [Example 117, 6-(3-Chloro-6-(difluoromethyl)-2-fluorophenyl)-N-(1-((6-(hexahydro-4H-furo[3,2-b]pyrrol-4-yl)pyridin-3-yl)methyl)-1H-pyrazol-4-yl)pyrazine-2-carboxamide]: it took 0.0054 µM to reach half-maximal inhibition (IC50).

In the case of `O=C(Nc1cnn(Cc2ccc(N3CCCC3CO)nc2)c1)c1cncc(-c2c(C(F)F)ccc(Cl)c2F)n1` (stereo not shown) [Example 118, 6-(3-Chloro-6-(difluoromethyl)-2-fluorophenyl)-N-(1-((6-(2-(hydroxymethyl)pyrrolidin-1-yl)pyridin-3-yl)methyl)-1H-pyrazol-4-yl)pyrazine-2-carboxamide], inhibition was half-maximal at 0.0125 µM (IC50).

In turn, `COC[C@@H]1CCCN1c1ccc(Cn2cc(NC(=O)c3cncc(-c4c(C(F)F)ccc(Cl)c4F)n3)cn2)cn1` [Example 120, (S)-6-(3-Chloro-6-(difluoromethyl)-2-fluorophenyl)-N-(1-((6-(2-(methoxymethyl)pyrrolidin-1-yl)pyridin-3-yl)methyl)-1H-pyrazol-4-yl)pyrazine-2-carboxamide] had an IC50 of 0.0178 µM.

In turn, `CN(CCO)c1ccc(Cn2cc(NC(=O)c3cncc(-c4c(C(F)F)ccc(Cl)c4F)n3)cn2)cn1` [Example 121, 6-(3-Chloro-6-(difluoromethyl)-2-fluorophenyl)-N-(1-((6-((2-hydroxyethyl)(methyl)amino)pyridin-3-yl)methyl)-1H-pyrazol-4-yl)pyrazine-2-carboxamide] gave an IC50 of 0.0184 µM.

In the case of `CN(C)C(=O)[C@@H]1CCCN1c1ccc(Cn2cc(NC(=O)c3cncc(-c4c(C(F)F)ccc(Cl)c4F)n3)cn2)cn1` [Example 125, (S)-6-(3-Chloro-6-(difluoromethyl)-2-fluorophenyl)-N-(1-((6-(2-(dimethylcarbamoyl)pyrrolidin-1-yl)pyridin-3-yl)methyl)-1H-pyrazol-4-yl)pyrazine-2-carboxamide], the IC50 turned out to be 0.0283 µM.

With `O=C(Nc1cnn(Cc2ccc(N3CC[C@H]3CO)nc2)c1)c1cncc(-c2c(C(F)F)ccc(Cl)c2F)n1` [Example 126, (S)-6-(3-Chloro-6-(difluoromethyl)-2-fluorophenyl)-N-(1-((6-(2-(hydroxymethyl)azetidin-1-yl)pyridin-3-yl)methyl)-1H-pyrazol-4-yl)pyrazine-2-carboxamide], the IC50 amounted to 0.0305 µM.

`O=C(Nc1cnn(Cc2ccc(N3CC4C(C3)C4(F)F)nc2)c1)c1cncc(-c2c(C(F)F)ccc(Cl)c2F)n1` (stereo not shown) [Example 127, 6-(3-Chloro-6-(difluoromethyl)-2-fluorophenyl)-N-(1-((6-(6,6-difluoro-3-azabicyclo[3.1.0]hexan-3-yl)pyridin-3-yl)methyl)-1H-pyrazol-4-yl)pyrazine-2-carboxamide] returned an IC50 of 0.0313 µM.

`O=C(Nc1cnn(Cc2ccc(N3CCNC4(CC4)C3)nc2)c1)c1cncc(-c2c(C(F)F)ccc(Cl)c2F)n1` [Example 128, N-(1-((6-(4,7-Diazaspiro[2.5]octan-7-yl)pyridin-3-yl)methyl)-1H-pyrazol-4-yl)-6-(3-chloro-6-(difluoromethyl)-2-fluorophenyl)pyrazine-2-carboxamide] yielded a half-maximal inhibitory concentration (IC50) of 0.0322 µM.

`NC(=O)C1CCCN(c2ccc(Cn3cc(NC(=O)c4cncc(-c5c(C(F)F)ccc(Cl)c5F)n4)cn3)cn2)C1` (stereo not shown) [Example 129, N-(1-((6-(3-Carbamoylpiperidin-1-yl)pyridin-3-yl)methyl)-1H-pyrazol-4-yl)-6-(3-chloro-6-(difluoromethyl)-2-fluorophenyl)pyrazine-2-carboxamide] had an IC50 of 0.0328 µM.

In turn, `Cn1cnc(C2CCCN2c2ccc(Cn3cc(NC(=O)c4cncc(-c5c(C(F)F)ccc(Cl)c5F)n4)cn3)cn2)n1` (stereo not shown) [Example 130, 6-(3-Chloro-6-(difluoromethyl)-2-fluorophenyl)-N-(1-((6-(2-(1-methyl-1H-1,2,4-triazol-3-yl)pyrrolidin-1-yl)pyridin-3-yl)methyl)-1H-pyrazol-4-yl)pyrazine-2-carboxamide] yielded a 50% inhibitory concentration (IC50) of 0.035 µM.

`CC(=O)N1CC[C@H]2CN(c3ccc(Cn4cc(NC(=O)c5cncc(-c6c(C(F)F)ccc(Cl)c6F)n5)cn4)cn3)[C@H]2C1` [Example 131, N-(1-((6-((1R,6S)-3-Acetyl-3,8-diazabicyclo[4.2.0]octan-8-yl)pyridin-3-yl)methyl)-1H-pyrazol-4-yl)-6-(3-chloro-6-(difluoromethyl)-2-fluorophenyl)pyrazine-2-carboxamide] came in with a half-inhibitory concentration (IC50) of 0.0376 µM.

`O=C(Nc1cnn(Cc2ccc(N3CCC(CO)C3)nc2)c1)c1cncc(-c2c(C(F)F)ccc(Cl)c2F)n1` (stereo not shown) [Example 132, 6-(3-Chloro-6-(difluoromethyl)-2-fluorophenyl)-N-(1-((6-(3-(hydroxymethyl)pyrrolidin-1-yl)pyridin-3-yl)methyl)-1H-pyrazol-4-yl)pyrazine-2-carboxamide] returned a half-inhibitory concentration (IC50) of 0.049 µM.

Turning to `CC(=O)N1CC[C@@H]2CN(c3ccc(Cn4cc(NC(=O)c5cncc(-c6c(C(F)F)ccc(Cl)c6F)n5)cn4)cn3)[C@@H]2C1` [Example 133, N-(1-((6-((1S,6R)-3-Acetyl-3,8-diazabicyclo[4.2.0]octan-8-yl)pyridin-3-yl)methyl)-1H-pyrazol-4-yl)-6-(3-chloro-6-(difluoromethyl)-2-fluorophenyl)pyrazine-2-carboxamide], the IC50 stood at 0.0495 µM.

The compound `O=C(Nc1cnn(Cc2cnc(N3CCCC3CN3CCOCC3)nc2)c1)c1cncc(-c2c(C(F)F)ccc(Cl)c2F)n1` (stereo not shown) [Example 153, 6-(3-Chloro-6-(difluoromethyl)-2-fluorophenyl)-N-(1-((2-(2-(morpholinomethyl)pyrrolidin-1-yl)pyrimidin-5-yl)methyl)-1H-pyrazol-4-yl)pyrazine-2-carboxamide] yielded an IC50 of 0.0011 µM.

For the compound `O=C(Nc1cnn(Cc2cnc(N3CCCC3CNCC(F)F)nc2)c1)c1cncc(-c2c(C(F)F)ccc(Cl)c2F)n1` (stereo not shown) [Example 157, 6-(3-Chloro-6-(difluoromethyl)-2-fluorophenyl)-N-(1-((2-(2-(((2,2-difluoroethyl)amino)methyl)pyrrolidin-1-yl)pyrimidin-5-yl)methyl)-1H-pyrazol-4-yl)pyrazine-2-carboxamide], the 50% inhibitory concentration (IC50) worked out at 0.0093 µM.

In turn, `O=C(Nc1cnn(Cc2cnc(N3CCCC3CN3C[C@H](F)[C@@H](F)C3)nc2)c1)c1cncc(-c2c(C(F)F)ccc(Cl)c2F)n1` (stereo partly drawn) [Example 158, 6-(3-Chloro-6-(difluoromethyl)-2-fluorophenyl)-N-(1-((2-(2-(((35,4S)-3,4-difluoropyrrolidin-1-yl)methyl)pyrrolidin-1-yl)pyrimidin-5-yl)methyl)-1H-pyrazol-4-yl)pyrazine-2-carboxamide] had an IC50 of 0.0095 µM.

In turn, `CC(c1cnc(N2CC[C@H]2CN2C[C@H](O)C[C@H]2C)nc1)n1cc(NC(=O)c2cncc(-c3c(C(F)F)ccc(Cl)c3F)n2)cn1` (stereo partly drawn) [Example 164, 6-(3-Chloro-6-(difluoromethyl)-2-fluorophenyl)-N-(1-(1-(2-((S)-2-(((2R,4R)-4-hydroxy-2-methylpyrrolidin-1-yl)methyl)azetidin-1-yl)pyrimidin-5-yl)ethyl)-1H-pyrazol-4-yl)pyrazine-2-carboxamide] showed an IC50 of 0.0034 µM.

`CC(c1cnc(N2CC[C@H]2CN2CC(O)C2)nc1)n1cc(NC(=O)c2cncc(-c3c(C(F)F)ccc(Cl)c3F)n2)cn1` (stereo partly drawn) [Example 170, 6-(3-Chloro-6-(difluoromethyl)-2-fluorophenyl)-N-(1-(1-(2-((S)-2-((3-hydroxyazetidin-1-yl)methyl)azetidin-1-yl)pyrimidin-5-yl)ethyl)-1H-pyrazol-4-yl)pyrazine-2-carboxamide] registered a 50% inhibitory concentration (IC50) of 0.0016 µM.

`CC(c1cnc(N2CC[C@H]2CN2CC(F)C2)nc1)n1cc(NC(=O)c2cncc(-c3c(C(F)F)ccc(Cl)c3F)n2)cn1` (stereo partly drawn) [Example 171, 6-(3-Chloro-6-(difluoromethyl)-2-fluorophenyl)-N-(1-(1-(2-((S)-2-((3-fluoroazetidin-1-yl)methyl)azetidin-1-yl)pyrimidin-5-yl)ethyl)-1H-pyrazol-4-yl)pyrazine-2-carboxamide]: the half-maximal inhibitory concentration (IC50) worked out at 0.0049 µM.

Take `CC(c1cnc(N2CC[C@H]2CN2CC(O)(C3CC3)C2)nc1)n1cc(NC(=O)c2cncc(-c3c(C(F)F)ccc(Cl)c3F)n2)cn1` (stereo partly drawn) [Example 172, 6-(3-Chloro-6-(difluoromethyl)-2-fluorophenyl)-N-(1-(1-(2-((S)-2-((3-cyclopropyl-3-hydroxyazetidin-1-yl)methyl)azetidin-1-yl)pyrimidin-5-yl)ethyl)-1H-pyrazol-4-yl)pyrazine-2-carboxamide]: the IC50 worked out at 0.0018 µM.

In turn, `CC(c1cnc(N2CC[C@H]2CN2CC(C)(O)C2)nc1)n1cc(NC(=O)c2cncc(-c3c(C(F)F)ccc(Cl)c3F)n2)cn1` (stereo partly drawn) [Example 174, 6-(3-Chloro-6-(difluoromethyl)-2-fluorophenyl)-N-(1-(1-(2-((S)-2-((3-hydroxy-3-methylazetidin-1-yl)methyl)azetidin-1-yl)pyrimidin-5-yl)ethyl)-1H-pyrazol-4-yl)pyrazine-2-carboxamide] displayed an IC50 of 0.0023 µM.

Values taken from patent US20230416227A1, “PLASMA KALLIKREIN INHIBITORS” (Merck Sharp & Dohme LLC, priority 2020, published 2023).
